According to PMC10041525, “New Dual Inhibitors of Bacterial Topoisomerases with Broad-Spectrum Antibacterial Activity and In Vivo Efficacy against Vancomycin-Intermediate Staphylococcus aureus” (Journal of Medicinal Chemistry, 2023):

Assay: in vitro
Type: in vitro ADME, mouse
Details: male, CD-1, mouse; for fraction unbound at 4 h, 5 μM: plasma (pooled), mouse plasma, read-out: fu, fraction unbound; for recovery at 4 h, 5 μM: plasma protein binding assay
Method: The PPB studies were performed by Selvita d.o.o. (Zagreb, Croatia) in mouse plasma (CD-1 male, pooled, commercially obtained from BioIVT) via equilibrium dialysis. Compounds were assayed at 5 μM (0.5% DMSO) in two replicates, and incubation time was 4 h at 37 °C. Samples were taken at 0 min and 4 h. Aliquots from both buffer and plasma compartment matrix were matched and mixed with 6 volumes of STOP solution (acetonitrile/methanol (2:1) + internal standard – diclofenac) and analyzed by LC–MS/MS. Assay controls were caffeine (low), verapamil (moderate binding), and nicardipine (very high binding), and protein contamination was checked.

With Cc1[nH]c(C(=O)Nc2nc3c(N4CCOC[C@H]4C)cc(C(=O)O)cc3s2)c(Cl)c1Cl [7c, (R)-2-(3,4-Dichloro-5-methyl-1H-pyrrole-2-carboxamido)-4-(3-methylmorpholino)benzo[d]thiazole-6-carboxylic Acid] the fraction unbound at 4 h, 5 μM was 0.016 and the recovery at 4 h, 5 μM was 93%.
Cc1[nH]c(C(=O)Nc2nc3c(N4CCOC[C@@H]4C)cc(C(=O)O)cc3s2)c(Cl)c1Cl [7d, (S)-2-(3,4-Dichloro-5-methyl-1H-pyrrole-2-carboxamido)-4-(3-methylmorpholino)benzo[d]thiazole-6-carboxylic Acid] gave a fraction unbound at 4 h, 5 μM of 0.011 and a recovery at 4 h, 5 μM of 89.5%.
With Cc1[nH]c(C(=O)Nc2nc3c(N4CCOCC4C)cc(C(=O)O)cc3s2)c(Cl)c1Cl (stereo not shown) [7b, 2-(3,4-Dichloro-5-methyl-1H-pyrrole-2-carboxamido)-4-(3-methylmorpholino)benzo[d]thiazole-6-carboxylic Acid] the fraction unbound at 4 h, 5 μM was 0.013 and the recovery at 4 h, 5 μM was 84.5%.
With Cc1[nH]c(C(=O)Nc2nc3c(N4CCOC(C(F)(F)F)C4)cc(C(=O)O)cc3s2)c(Cl)c1Cl (stereo not shown) [7i, 2-(3,4-Dichloro-5-methyl-1H-pyrrole-2-carboxamido)-4-(2-(trifluoromethyl)morpholino)benzo[d]thiazole-6-carboxylic Acid] the fraction unbound at 4 h, 5 μM was less than 0.001 and the recovery at 4 h, 5 μM was 110%.
Work on Cc1[nH]c(C(=O)Nc2nc3c(N4C[C@H]5CC[C@@H](C4)O5)cc(C(=O)O)cc3s2)c(Cl)c1Cl [7g, 4-((1R,5S)-8-Oxa-3-azabicyclo[3.2.1]octan-3-yl)-2-(3,4-dichloro-5-methyl-1H-pyrrole-2-carboxamido)benzo[d]thiazole-6-carboxylic Acid] yielded a fraction unbound at 4 h, 5 μM of 0.004 and a recovery at 4 h, 5 μM of 93.5%.
